# Experimental data reported in patent publication US10189818B2, “5-(5-(2-(3-aminopropdoxy)-6-methoxyphenyl)-1H-pyrazol-3-ylamino)pyrazine-2-carbonitfile (S)-lactate monohydrate” (priority 2015, dated 2019).
# Columns and labels:
# [1] = Pharmacokinetic comparison after 1-hour IV infusion, plasma concentrations by LC-MS/MS; assay type: in vivo, male Sprague-Dawley rats; settings: rat; for concentration at 0.25 h / concentration at 0.5 h / concentration at 1 h / concentration at 1.25 h / concentration at 1.5 h / concentration at 2 h / concentration at 4 h / concentration at 8 h / concentration at 24 h: male, Sprague-Dawley, single 10 mg/kg 1-hour intravenous infusion; for concentration at 0.25 h: 0.25 hours after start of infusion; for concentration at 0.5 h: 0.5 hours after start of infusion; for concentration at 1 h: 1 hour after start of infusion; for concentration at 1.25 h: 1.25 hours after start of infusion; for concentration at 1.5 h: 1.5 hours after start of infusion; for concentration at 2 h: 2 hours after start of infusion; for concentration at 4 h: 4 hours after start of infusion; for concentration at 8 h: 8 hours after start of infusion; for concentration at 24 h: 24 hours after start of infusion; for Difference in blood plasma levels between the two salt forms (2 sample t-test, pooled error): 10 mg/kg IV infusion for 1 hour, mesylate formulated in Captisol, (S)-lactate in trehalose
# Procedure: Evaluate the noncompartmental pharmacokinetic parameters of the methanesulfonic acid monohydrate and (S)-lactate monohydrate salts of 5-(5-(2-(3-aminopropoxy)-6-methoxyphenyl)-1H-pyrazol-3-ylamino)pyrazine-2-carbonitrile after intravenous (IV) infusion of 10 mg/kg of the methanesulfonic acid monohydrate salt (10 mg/kg, formulated in Captisol®) or of the (S)-lactate monohydrate salt (formulated in trehalose) into the femoral vein cannula of fed male Sprague-Dawley rats for 1 hour. Collect blood samples over 24 hours from 6 animals/group. Collect blood samples into tubes containing K3EDTA at 0.25, 0.5, 1, 1.25, 1.5, 2, 4, 8, and 24 hours after the start of infusion. Centrifuge the samples to obtain plasma, and freeze until analyzed. Determine plasma concentrations using a validated LC-MS/MS assay.
# Dispense WFI equivalent to approximately 80% of the final batch volume. Warm the WFI to 40° C.±3° C. and transfer to the manufacturing vessel. Weigh the required amount of active pharmaceutical ingredient and after ensuring that the WFI temperature is still within the specified range, quantitatively transfer the active pharmaceutical ingredient into the manufacturing vessel while stirring. Stir until the active pharmaceutical ingredient has dissolved yielding a clear yellow solution, stirring for no longer than 30 minutes. Add trehalose and polysorbate 80 to the manufacturing vessel. Stir until dissolved. Measure the pH of the solution and adjust to pH 4.4±0.3 with lactic acid (Note: If using lactic acid 88%-92% solution, titrate slowly and cautiously as small quantities can produce large changes in pH, or prepare a 10% solution of lactic acid for pH adjustment). If necessary, and only if the pH drops below the lower limit during adjustment, add 10% NaOH solution to bring the pH back into range. Add WFI to the manufacturing vessel to bring the solution to the final batch weight which is calculated based on the desired batch volume and the density of the solution. Measure the pH of the solution and adjust, if necessary, to pH 4.4±0.3 with lactic acid or 10% NaOH. The solution is filtered through a sterile 0.22 micron PVDF membrane (Millipore Durapore®) into a sterile receiving vessel. Fill the drug product into sterile vials. Upon completion of filling, stopper and seal vials. If not dosed within about 4 hours, store all vials at −20° C.
# Dispense WFI equivalent to approximately 80% of the final batch volume into the manufacturing vessel. Weigh the required amount of Captisol® and transfer to the manufacturing vessel. Stir until dissolved. Weigh the required amount of active pharmaceutical ingredient and form a slurry by adding WFI to the active pharmaceutical ingredient with swirling until wetted. Transfer the slurry to the stirring Captisol® solution. Rinse the active pharmaceutical ingredient with WFI (3×) and add the rinses to the stirring bulk solution. Stir until the active pharmaceutical ingredient has been dispersed. Stir for no longer than 60 minutes. Some particles may be visible in the manufacturing vessel after stirring for 60 minutes. Maintain the pH of the solution between 4.0-6.0. If the pH drops below the lower limit, 10% NaOH solution may be added to bring the pH into range. Add WFI to the manufacturing vessel to bring the solution to the final batch weight which is calculated based on the desired batch volume and the density of the solution. Measure the pH of the solution and adjust, if necessary, to pH 4.0-6.0 with 10% NaOH. Filter the solution through a sterile 0.22 micron PVDF membrane (Millipore Durapore®) into a sterile receiving vessel. Fill the drug product into sterile vials. Upon completion of filling, stopper and seal the vials. If not dosed within about 4 hours, store all vials at −20° C.
# [2] = Solubility screen of the salts in aqueous acid solution, HPLC; assay type: physicochemical; settings: thermodynamic from solid, room temperature, one week
# Procedure: Prepare an aqueous solution (approximately 0.1 M) of selected acid. Add solid 5-(5-(2-(3-aminopropoxy)-6-methoxyphenyl)-1H-pyrazol-3-ylamino)pyrazine-2-carbonitrile (20-26 mg). Agitate slurry at room temperature for one week. Measure the 5-(5-(2-(3-aminopropoxy)-6-methoxyphenyl)-1H-pyrazol-3-ylamino)pyrazine-2-carbonitrile concentration by HPLC. Aliquots (˜200 μL) are withdrawn from the suspensions through 0.45 micron Millex® PTFE filters. Dilute samples with mobile phase and analyze by HPLC. Analyze the samples with an Agilent 1100 HPLC (Instrument 800) with a Zorbax Bonus RP (75 mm×4.6 mm, 3.5 micron particle size) column, or equivalent. The mobile phase consists of 20% of a 0.1% TFA in acetonitrile mixture and 80% of a 0.1% TFA in water mixture. Instrument conditions are as follows: flow rate 1.0 mL/minute, wavelength of detection 290 nm, 3 μL injection volume, 10 minute run time, and column temperature of 30° C. Prepare a stock solution of 5-(5-(2-(3-aminopropoxy)-6-methoxyphenyl)-1H-pyrazol-3-ylamino)pyrazine-2-carbonitrile in 50/50 water/acetonitrile and dilute with 50/50 water/acetonitrile to give concentrations suitable for quantification of the solubility samples. Dilute the samples with 50/50 acetonitrile/water. Use a dilution factor of 200 for the samples. Measure the pH of each solution and analyze the solid residues by microscopy and XRPD (wet and dry) for crystallinity and crystal form.
# Prepare a (S)-lactic acid aqueous solution (0.104 M, 1 mL). Add solid 5-(5-(2-(3-aminopropoxy)-6-methoxyphenyl)-1H-pyrazol-3-ylamino)pyrazine-2-carbonitrile (21.7 mg, 0.059 mmol). Agitate the slurry at room temperature for one week. Measure the 5-(5-(2-(3-aminopropoxy)-6-methoxyphenyl)-1H-pyrazol-3-ylamino)pyrazine-2-carbonitrile concentration by HPLC. Withdraw an aliquot (˜200 μL) from the suspension through 0.45 micron Millex® PTFE filters. Dilute the samples with mobile phase and analyze by HPLC. Analyze the samples with an Agilent 1100 HPLC (Instrument 800) with a Zorbax Bonus RP (75 mm×4.6 mm, 3.5 micron particle size) column, or equivalent. The mobile phase consists of 20% of a 0.1% TFA in acetonitrile mixture and 80% of a 0.1% TFA in water mixture. Instrument conditions are as follows: flow rate 1.0 mL/minute, wavelength of detection 290 nm, 3 μL injection volume, 10 minute run time, and column temperature of 30° C. Prepare a stock solution of 5-(5-(2-(3-aminopropoxy)-6-methoxyphenyl)-1H-pyrazol-3-ylamino)pyrazine-2-carbonitrile in 50/50 water/acetonitrile and dilute with 50/50 water/acetonitrile to give concentrations suitable for quantification of the solubility samples. Dilute the samples with 50/50 acetonitrile/water. Use a dilution factor of 200 for the samples. […]
# [3] = Stability comparison of the salt forms (Table 2); assay type: physicochemical; settings: salt form comparison
# [4] = aqueous buffer, water solubility comparison, slurry in approx. 0.1 M aqueous acid
compound,measurement,setting,value
"COc1cccc(OCCCN)c1-c1cc(Nc2cnc(C#N)cn2)n[nH]1.C[C@H](O)C(=O)O [(S)-Lactate Monohydrate, 5-(5-(2-(3-Aminopropoxy)-6-methoxyphenyl)-1H-pyrazol-3-ylamino)pyrazine-2-carbonitrile (S)-lactate Monohydrate]",concentration at 0.25 h,[1]; plasma,1110 ng/mL
same,concentration at 0.5 h,[1]; plasma,1180 ng/mL
same,concentration at 1 h,[1]; plasma,1140 ng/mL
same,concentration at 1.25 h,[1]; plasma,405 ng/mL
same,concentration at 1.5 h,[1]; plasma,283 ng/mL
same,concentration at 2 h,[1]; plasma,217 ng/mL
same,concentration at 4 h,[1]; plasma,73.8 ng/mL
same,concentration at 8 h,[1]; plasma,28.6 ng/mL
same,concentration at 24 h,[1]; plasma,2.6 ng/mL
same,"Difference in blood plasma levels between the two salt forms (2 sample t-test, pooled error)",[1],no significant difference
same,solubility at 1 week,"[2]; aqueous (S)-lactic acid solution, pH 2.46, aqueous buffer, in water, measured at a pH of 2.46, 0.104 M (S)-lactic acid",> 20000 µg/mL
same,solubility at 1 week,"[2]; aqueous solution of the selected acid, aqueous buffer, water solubility comparison, slurry in approx. 0.1 M aqueous acid",> 20000 µg/mL
same,Stability,[3],Satisfactory
"COc1cccc(OCCCN)c1-c1cc(Nc2cnc(C#N)cn2)n[nH]1.Cl.Cl [Di-HCl, 5-(5-(2-(3-aminopropoxy)-6-methoxyphenyl)-1H-pyrazol-3-ylamino)pyrazine-2-carbonitrile di-HCl salt]",solubility at 1 week,[2]; [4],107 µg/mL
same,Stability,[3],Unstable
"COc1cccc(OCCCN)c1-c1cc(Nc2cnc(C#N)cn2)n[nH]1.CS(=O)(=O)O.O [Methanesulfonic acid Monohydrate, 5-(5-(2-(3-aminopropoxy)-6-methoxyphenyl)-1H-pyrazol-3-ylamino)pyrazine-2-carbonitrile methanesulfonic acid monohydrate salt]",concentration at 0.25 h,[1]; in vivo,1060 ng/mL
same,concentration at 0.5 h,[1]; in vivo,1100 ng/mL
same,concentration at 1 h,[1]; in vivo,930 ng/mL
same,concentration at 1.25 h,[1]; in vivo,319 ng/mL
same,concentration at 1.5 h,[1]; in vivo,249 ng/mL
same,concentration at 2 h,[1]; in vivo,178 ng/mL
same,concentration at 4 h,[1]; in vivo,67.5 ng/mL
same,concentration at 8 h,[1]; in vivo,30.3 ng/mL
same,concentration at 24 h,[1]; in vivo,3 ng/mL
same,"Difference in blood plasma levels between the two salt forms (2 sample t-test, pooled error)",[1],no significant difference
same,solubility at 1 week,[2]; [4],6630 µg/mL
same,Stability,[3],Satisfactory
